Measured values as given in patent US11779592B2, “Inhibition of NGLY1 for the treatment of cancer” (University of North Texas Health Science Center, priority 2017, dated 2023).
Residues, ends and D or L forms follow the SMILES beside them. *: point of attachment. Cbz = O=C(OCc1ccccc1)*; CH2F = FC*

Legend:
SK-MEL-2 cells = test: Cell viability test (MTT) in SK-MEL-2 cells; format: cell-based, human
Procedure: (§1) Despite the frequent failure of chemotherapy in patients with melanoma, chemotherapy remains a frontline approach for treatment, especially in many patients who cannot afford immunotherapy or targeted therapy. […] Identifying novel approaches to enhance the efficacy of chemotherapy and targeted therapy agents in melanoma will greatly benefit many cancer patients. […] The IC50 of each drug treatment in each cell clone was calculated using CalcuSyn 2.0.
(§2) The dose effect of dox-induced expression of NGLY1 shRNA in each cell clone was also determined. The IC50 of each drug treatment in each cell clone was calculated using CalcuSyn 2.0. To determine the interaction between NGLY1 knockdown and each anticancer agent, cells were exposed to four-dose combinations of dox and an anticancer agent at a fixed dose ratio. The combination index (CI) value was calculated using CalcuSyn 2.0. CI values of less than 1 are considered a synergistic interaction. […]
(§3) Cells were seeded into 96-well plates (2,500-5,000 cells/well, depending on cell types), incubated overnight, and treated as indicated. […] Reduced MTT was solubilized in DMSO for determination of absorbance at 570 nm. Absorbance of reduced MTS was directly measured in the reaction medium at 490 nm. The relative cell viability in each treatment condition was calculated based on absorbance values.

human NGLY1 = biological target: T1, human NGLY1 (Homo sapiens, UniProt Q96IV0); test: RNase B deglycosylation assay with recombinant human NGLY1; format: biochemical
T1 construct: host or cells: HEK293T
T1 sequence (Q96IV0 1-654): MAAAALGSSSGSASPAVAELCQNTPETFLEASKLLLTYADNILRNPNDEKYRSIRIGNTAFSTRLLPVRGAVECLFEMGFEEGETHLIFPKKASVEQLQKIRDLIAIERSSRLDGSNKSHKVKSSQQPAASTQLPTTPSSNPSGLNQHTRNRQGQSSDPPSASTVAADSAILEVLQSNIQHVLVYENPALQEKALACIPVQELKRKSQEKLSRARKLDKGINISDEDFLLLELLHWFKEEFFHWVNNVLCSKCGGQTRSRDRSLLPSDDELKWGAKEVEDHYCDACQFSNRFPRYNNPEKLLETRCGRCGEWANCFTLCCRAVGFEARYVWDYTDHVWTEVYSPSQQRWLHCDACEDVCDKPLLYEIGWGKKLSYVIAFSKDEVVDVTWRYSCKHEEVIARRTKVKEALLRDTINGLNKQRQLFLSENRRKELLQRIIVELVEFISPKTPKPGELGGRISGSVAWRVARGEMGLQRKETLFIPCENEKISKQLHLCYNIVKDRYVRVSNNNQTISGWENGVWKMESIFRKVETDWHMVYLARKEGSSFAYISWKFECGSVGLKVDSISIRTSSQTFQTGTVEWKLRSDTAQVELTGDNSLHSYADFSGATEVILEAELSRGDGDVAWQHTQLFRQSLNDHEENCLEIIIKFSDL
Source text: The computational homology model of human NGLY1 core domain was generated and used for studying interactions between NGLY1 and novel small molecules that are designed to covalently modified and inactivate the catalytic site of NGLY1. (FIG. 15A) The most favorable binding pose of Z-VAD-fmk, a short peptide with NGLY1 and caspase inhibitory activity, in the human NGLY1 homology model superimposed to the conformation of Z-VAD-fmk bound to mouse NGLY1 in a co-crystalized structure. […] RNase B (g): glycosylated RNase B. RNase B (dg): deglycosylated RNase B. Veh: vehicle (DMSO) treatment. M: molecular weight marker. Lower panel: the deglycosylation of NFE2L1 altered by the treatment of 20 μM Z-VAD-fmk and 200 μM NM-350 in bortezomib-treated HEK293T cells. The cells were pretreated with vehicle (DMSO), Z-VAD-fmk and NM-350 for 24 hours and subsequently subjected to concomitant treatment with 10 μM bortezomib for an additional 16 hours. Cell lysates reacted with and without 500 units of PNGase F for 2 hours were analyzed using Western blotting. Top arrowhead in lanes 2 and 3: fully glycosylated NFE2L1. Top arrowhead in lane 1: partially glycosylated NFE2L1. Bottom arrowhead: deglycosylated and truncated NFE2L1. […] The cell viability curve of combinatorial treatment was plotted according to the doses of dacarbazine used in the treatment. […] The cell viability curve of combinatorial treatment was plotted according to the doses of bortezomib used in the treatment. All the data of cell viability tests were presented as mean±standard deviation (n=3).
FLAG-tagged human NGLY1 was overexpressed by the transduction of the pLenti expression vector that carries a Myc-DDK-tagged-human NGLY1 open reading frame in HEK293T cells. Anti-FLAG magnetic beads (OriGene Technologies, Rockville, MD) were used to react with the lysate of HEK293T cells overnight at 4° C. in the presence of pan-protease inhibitors to purify the FLAG-tagged NGLY1. The magnetic beads were thoroughly washed using 0.5% Tween 20 in PBS for three times to minimize non-specific binding. The enrichment of recombinant human NGLY1 was checked by Western blotting of NGLY1 in the pull-down fraction. To perform RNase B deglycosylation assays, purified human NGLY1 on an equal volume of magnetic beads was incubated with PBS containing each of the indicated small molecules and control vehicle (DMSO) at 37° C. for 2 hours. The magnetic beads were then collected and resuspended in PBS containing 0.05% NP-40. Each magnetic bead suspension was mixed with 1 ug RNase B (Millipore Sigma, St. Louis, MO) that was pre-denatured using 5 mM DTT in the presence of 8M urea at 42° C. for 1 hour followed by the treatment of 25 mM iodoacetamide at room temperature for 1 hour and buffer exchange into PBS using Zeba 7K MWCO spin columns (Thermo Fisher Scientific, Carlsbad, CA). The mixtures of magnetic bead suspension and denatured RNase B were left at 37° C. for 16 hours. The proteins in each mixture were resolved by SDS-PAGE and visualized using SYPRO Ruby gel stain (Thermo Fisher Scientific, Carlsbad, CA).

NFE2L1 = test: Deglycosylation of NFE2L1 in bortezomib-treated HEK293T cells (Western blotting); format: cell-based; details: 24 hours pretreatment then 10 μM bortezomib 16 hours
Source text: The computational homology model of human NGLY1 core domain was generated and used for studying interactions between NGLY1 and novel small molecules that are designed to covalently modified and inactivate the catalytic site of NGLY1. (FIG. 15A) The most favorable binding pose of Z-VAD-fmk, a short peptide with NGLY1 and caspase inhibitory activity, in the human NGLY1 homology model superimposed to the conformation of Z-VAD-fmk bound to mouse NGLY1 in a co-crystalized structure. […] RNase B (g): glycosylated RNase B. RNase B (dg): deglycosylated RNase B. Veh: vehicle (DMSO) treatment. M: molecular weight marker. Lower panel: the deglycosylation of NFE2L1 altered by the treatment of 20 μM Z-VAD-fmk and 200 μM NM-350 in bortezomib-treated HEK293T cells. The cells were pretreated with vehicle (DMSO), Z-VAD-fmk and NM-350 for 24 hours and subsequently subjected to concomitant treatment with 10 μM bortezomib for an additional 16 hours. Cell lysates reacted with and without 500 units of PNGase F for 2 hours were analyzed using Western blotting. Top arrowhead in lanes 2 and 3: fully glycosylated NFE2L1. Top arrowhead in lane 1: partially glycosylated NFE2L1. Bottom arrowhead: deglycosylated and truncated NFE2L1. […] The cell viability curve of combinatorial treatment was plotted according to the doses of dacarbazine used in the treatment. […]

UACC257 cells = test: Cell viability test (MTT) in UACC257 cells; format: cell-based, human; details: 20 μM, 72-hour treatment
Procedure: as §1, §2, §3

MALME3M cells = format: cell-based; details: 20 μM, 72-hour treatment
Procedure: as §1, §2, §3

HepG2 liver cancer cells = test: Cell morphology of HepG2 cells with NGLY1 knockdown; format: cell-based
NGLY1 = NGLY1 expression in stable clones of melanoma cells (immunoblotting); format: cell-based, human; details: stable clones of MALME3M, UACC257 and SK-MEL-2 cells, 48-hour treatment of dox
Source text: These NGLY1-targeting shRNA sequences and a scrambled (non-targeting) shRNA sequence were cloned into doxycycline (dox)-inducible, polycistronic green fluorescence protein (GFP)-shRNA expression constructs (a pZIP inducible lentiviral vector, TransOMIC). Stable clones have been generated with the shRNA expression constructs in multiple human melanoma cell lines, including MALME3M, UACC257, SK-MEL-2, and COLO829 melanoma cells. […] Similar knockdown effects were found in the stable clones of other melanoma cells with this particular NGLY1 shRNA sequence. […] Similar to human normal fibroblasts, normal melanocytes (FIG. 5D) and keratinocytes appeared to well tolerate NGLY1 knockdown and show no sign of increased cell death. In addition, SK-MEL-2, MALME3M cells that express inducible NGLY1 shRNA presented significant apoptosis, compared to their scrambled RNA-expressing counterparts. The expression of exogenous human NGLY1 in melanoma cells attenuated NGLY1-targeting shRNA-induced apoptosis (FIG. 5E).
The knockdown of NGLY1 expression in melanoma cells was achieved by the transduction of pZIP-TRE3GS lentiviral expression vectors that carry two independent shRNA sequences (Below; TransOMIC Technologies, Huntsville, AL). […] The expression of the shRNA sequences and an open reading frame of the ZsGreen reporter is driven by the TRE3GS doxycycline-inducible promoter. […]

[1] = tested on: U-251MG glioblastoma cells; test: Cell morphology of U-251MG cells with NGLY1 knockdown; format: cell-based
[2] = 2-hour reaction with human NGLY1

C=CC(=O)N[C@@H](CC(=O)N[C@@H]1O[C@H](COC(C)=O)[C@@H](OC(C)=O)[C@H](OC(C)=O)[C@H]1NC(C)=O)C(=O)NCCC [NM-322, (2R,3S,4R,5R,6R)-5-acetamido-2-(acetoxymethyl)-6-((S)-3-acrylamido-4-oxo-4-(propylamino)butanamido)tetrahydro-2H-pyran-3,4-diyl diacetate]
suppression of cell viability in combination (SK-MEL-2 cells; in combination with dacarbazine): synergistic effect | NGLY1 activity in the deglycosylation of denatured RNase B (human NGLY1; [2]): suppressed its activity

C=CS(=O)(=O)N[C@@H](CC(=O)N[C@@H]1O[C@H](COC(C)=O)[C@@H](OC(C)=O)[C@H](OC(C)=O)[C@H]1NC(C)=O)C(=O)NCCC [NM-348, (2R,3S,4R,5R,6R)-5-Acetamido-2-(acetoxymethyl)-6-((S)-4-oxo-4-(propylamino)-3-(vinylsulfonamido)butanamido)tetrahydro-2H-pyran-3,4-diyl diacetate]
NGLY1 activity in the deglycosylation of denatured RNase B (human NGLY1; [2]): suppressed its activity

CCCNC(=O)[C@H](CC(=O)N[C@@H]1O[C@H](COC(C)=O)[C@@H](OC(C)=O)[C@H](OC(C)=O)[C@H]1NC(C)=O)NC(=O)CCl [NM-350, (2R,3S,4R,5R,6R)-5-Acetamido-2-(acetoxymethyl)-6-((S)-3-(2-chloroacetamido)-4-oxo-4-(propylamino)butanamido)tetrahydro-2H-pyran-3,4-diyl diacetate]
suppression of cell viability in combination (SK-MEL-2 cells; in combination with bortezomib): synergistically suppressed the viability | deglycosylation of NFE2L1 (NFE2L1; 200 μM): clear retention of N-glycans on NFE2L1 | NGLY1 activity in the deglycosylation of denatured RNase B (human NGLY1; [2]): suppressed its activity

CCCNC(=O)[C@H](CC(=O)N[C@@H]1O[C@H](COC(C)=O)[C@@H](OC(C)=O)[C@H](OC(C)=O)[C@H]1NC(C)=O)NC(=O)/C=C/CN(C)C [NM-354, (2R,3S,4R,5R,6R)-5-Acetamido-2-(acetoxymethyl)-6-((S)-3-((E)-4-(dimethylamino)but-2-enamido)-4-oxo-4-(propylamino)butanamido)tetrahydro-2H-pyran-3,4-diyl diacetate]
NGLY1 activity in the deglycosylation of denatured RNase B (human NGLY1; [2]): suppressed its activity

Cc1ccc(S(=O)(=O)/C=C/C(=O)N[C@@H](CCc2ccccc2)C(=O)NCCC(C)C)cc1 [WRR139, reference compound]
NGLY1 activity in the deglycosylation of denatured RNase B (human NGLY1; 2-hour reaction, 5 μM): suppressed its activity

COC(=O)C[C@H](NC(=O)[C@H](C)NC(=O)[C@@H](NC(=O)OCc1ccccc1)C(C)C)C(=O)CF [Z-VAD-fmk, reference compound] (Cbz-Val-Ala-Asp(OMe)-CH2F)
deglycosylation of NFE2L1 (NFE2L1; 20 μM): altered | NGLY1 activity in the deglycosylation of denatured RNase B (human NGLY1; 2-hour reaction, 20 μM): suppressed its activity

N.N.[Cl][Pt][Cl] [cisplatin]
growth and cell death (UACC257 cells): moderate growth inhibition without increase of cell death | growth and cell death (MALME3M cells): moderate growth inhibition without increase of cell death

B1: NGLY1-shRNA647: NGLY1-targeting shRNA sequence (SEQ ID NO: 6), dox-inducible lentiviral vector (nucleic acid)
DNA: AAAGCAUUACUUCGAGACACUAUAGUGAAGCCACAGAUGUAUAGUGUCUCGAAGUAAUGCUUCU
cell morphology (HepG2 liver cancer cells): morphology of apoptosis | expression of NGLY1 (NGLY1): largely suppressed | cell morphology [1]: morphology of apoptosis
